How the values were obtained:
[1] = Particle size analysis (PSD), Malvern Mastersizer; assay type: physicochemical
Procedure: A 2 g sample of anhydrous crystalline ASM-024 was taken and fed through the Sturtevant Qualification Micronizer. The mill has a 2 inch chamber, and was operated at 80 psig grinding pressure and 90 psig feed pressure. Milled API was recovered from the exhaust filter sock and physically characterized.
Particle size analysis was performed using a Malvern Mastersizer with a Small Sample Presentation Unit. The dispersant used was ethyl acetate with 2 g of SPAN 85 per liter. Samples were prepared by sonicating 5 mg of sample in 2 ml of dispersant, the sample was then added dropwise to achieve 20% obscuration.
Magnesium stearate was blended with un-milled ASM-024 in two gram lots. Approximately one gram of ASM-024 was weighed into a 28 ml vial. The appropriate mass of magnesium stearate was then weighed on top of the API and the weight completed to two grams with ASM-024. The materials were blended using a Turbula T2F mixer at 101 rpm for ten minutes. The blended material was passed through the Sturtevant Qualification Micronizer and recovered from the filter sock.

[2] = NGI aerosol testing, mass retained in device and capsule; assay type: physicochemical; conditions: 40 mg capsule fill weight, standard and high resistance Miat Monodose inhalers
Procedure: (§1) For method development using the NGI method, size three HPMC capsules were hand filled with forty milligrams of micronized ASM-024. Three capsules were tested according to manufacturer's instructions using the following conditions: • Cup coating agent: 3% PEG400 with 0.1% F68 in acetone • Testing flow rate: 60 LPM • Testing volume: 4 L (4 second actuation) • Device: Miat Monodose Inhaler (standard resistance) • Sample diluent: 70% MeOH: 30% H2O (v/v) • Dilutions • Device—50 ml • Throat—50 ml • Pre-separator—100 ml • Stage 1—MOC—10 ml • Filter—50 ml
Aerosol performance and stability was assessed. Milled API was hand filled into size 3 HPMC capsules and size 3 gelatin capsules (40 mg capsule fill weight). NGI testing was performed in duplicate using standard resistance and high resistance Miat Monodose inhalers. […] The high resistance device has provided an increased FPM of ASM-024 from both HPMC and gelatin capsules.

LTD4-induced contraction = assay: Relaxant effect on LTD4-induced contraction
[3] = ASM-024 capsule stability study, NGI testing of fine particle mass (FPM); assay type: physicochemical; conditions: eight weeks at 40° C./75% RH
Procedure: as §1
A two month study was performed at accelerated conditions with testing at two weeks, four weeks and eight weeks. Hand filled 40 mg capsules were packed in foil pouches with a 10 g desiccant pouch and heat sealed. Hand filled 40 mg capsules were also packed in foil pouches and heat sealed without a desiccant pouch. All heat seals were hand checked to ensure seal integrity. Pouches were placed on stability at 40° C./75% RH. NGI testing of the capsules stored without desiccant were conducted over the eight week study.

[4] = PSD of ASM-024 prior to micronization
[5] = co-milled with 0.2 % w/w magnesium stearate
[6] = co-milled with 0.5 % w/w magnesium stearate
[7] = co-milled with 1.0 % w/w magnesium stearate
[8] = co-milled with 2.0 % w/w magnesium stearate
[9] = milled, 0.0 % magnesium stearate

d10 [1, 4]: 13.92 μm
d50 [1, 4]: 41.67 μm
d90 [1, 4]: 91.89 μm
d10 ([1]; after one pass in jet air mill): 0.78 μm
d50 ([1]; after one pass in jet air mill): 2.10 μm
d90 ([1]; after one pass in jet air mill): 4.70 μm
d10 [1, 5]: 0.89 µm
d50 [1, 5]: 1.74 µm
d90 [1, 5]: 3.33 µm
d10 [1, 6]: 0.89 µm
d50 [1, 6]: 1.86 µm
d90 [1, 6]: 3.94 µm
d10 [1, 7]: 0.9 µm
d50 [1, 7]: 1.7 µm
d90 [1, 7]: 3.17 µm
d10 [1, 8]: 0.91 µm
d50 [1, 8]: 1.69 µm
d90 [1, 8]: 3.11 µm
d10 [1, 9]: 0.97 µm
d50 [1, 9]: 1.95 µm
d90 [1, 9]: 3.8 µm
mass of ASM-024 retained in the device and capsule after NGI testing [2]: less than 20 mg
decrease in FPM ([3]; 40 mg capsules in foil pouches with 10 g desiccant pouch): ~5.7%
decrease in FPM ([3]; 40 mg capsules in foil pouches without desiccant): 10.9%
Compound: CC[N+]1(CC)CCCN(c2ccccc2)CC1 [ASM-024]
relaxant effect on LTD4-induced contraction (LTD4-induced contraction): no relaxant effect

— US9944610B2, “Preparation and method for use in the treatment of respiratory diseases” (Universite Laval, priority 2013, dated 2018)
